“Also recorded” adds a separate entry of the source. Square brackets hold non-standard residues; d marks the D form. Peptide text beside a SMILES is read from it. β3hW = N[C@H](CC(=O)O)Cc1c[nH]c2ccccc12; β3hR = N=C(N)NCCC[C@H](N)CC(=O)O; β3hE = N[C@@H](CCC(=O)O)CC(=O)O; β3hQ = NC(=O)CC[C@H](N)CC(=O)O; β3hD = NC(CC(=O)O)CC(=O)O; β3hA = C[C@H](N)CC(=O)O
How the values were obtained:
[1] = biological target: Bcl-2 (Homo sapiens, UniProt P10415); test: Solution competition SPR; format: binding
[2] = biological target: T1, Bcl-w (Homo sapiens, UniProt Q92843, A128E/C29S); test: Solution competition SPR; format: binding
T1 sequence (Q92843 1-164 C29S/A128E limits assumed): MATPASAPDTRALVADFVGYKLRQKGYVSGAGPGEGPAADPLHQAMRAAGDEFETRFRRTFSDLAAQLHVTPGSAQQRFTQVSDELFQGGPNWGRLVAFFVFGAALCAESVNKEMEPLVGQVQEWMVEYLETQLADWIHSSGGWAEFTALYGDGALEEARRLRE

[3] = biological target: T2, Bcl-xL (Homo sapiens, UniProt Q07817); test: Solution competition SPR; format: binding; conditions: for affinity for Bcl-xL: SPR, in words
T2 sequence (Q07817 1-209 limits assumed): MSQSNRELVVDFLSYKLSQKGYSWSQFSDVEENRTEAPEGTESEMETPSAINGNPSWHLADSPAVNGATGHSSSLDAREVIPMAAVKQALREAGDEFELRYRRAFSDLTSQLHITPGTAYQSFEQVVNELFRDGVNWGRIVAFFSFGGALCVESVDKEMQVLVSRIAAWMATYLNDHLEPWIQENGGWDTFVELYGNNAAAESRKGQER

[4] = biological target: Mcl-1 (Homo sapiens, UniProt Q07820, A193S/E173D/K208R/M199L/R201E/S202A/S206G/T196S/T205A); test: Solution competition SPR; format: binding, human/mouse chimeric; conditions: for affinity for Mcl-1: SPR, in words
Mcl-1, sequence (Q07820 171-327 E173D/A193S/T196S/M199L/R201E/S202A/T205A/S206G/K208R limits assumed): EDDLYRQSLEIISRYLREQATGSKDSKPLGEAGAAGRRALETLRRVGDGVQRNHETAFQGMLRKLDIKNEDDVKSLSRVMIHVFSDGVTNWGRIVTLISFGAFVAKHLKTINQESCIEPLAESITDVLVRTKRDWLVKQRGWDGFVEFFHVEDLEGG

[5] = system: pro-survival proteins; conditions: ref [37]; cited from earlier work
[6] = biological target: T2, Bcl-xL; conditions: preliminary studies; ref [14]; cited from earlier work
[7] = ref [14]; cited from earlier work

Bcl-2, sequence (P10415 1-217 limits assumed, species assumed): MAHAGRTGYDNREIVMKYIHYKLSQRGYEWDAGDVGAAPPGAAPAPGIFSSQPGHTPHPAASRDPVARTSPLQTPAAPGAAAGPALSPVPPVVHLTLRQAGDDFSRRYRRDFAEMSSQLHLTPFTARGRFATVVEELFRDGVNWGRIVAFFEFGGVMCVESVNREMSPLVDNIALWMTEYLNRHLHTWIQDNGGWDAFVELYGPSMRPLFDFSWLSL

| Structure (SMILES) | IC50 [1] | IC50 [2] | IC50 [3] | IC50 [4] | binding to all pro-survival proteins [5] | affinity for Bcl-xL [3] | affinity for Mcl-1 [4] | binding to Bcl-xL [6] | resistance to proteolytic degradation [7] |
| --- | --- | --- | --- | --- | --- | --- | --- | --- | --- |
| CC[C@H](C)[C@H](NC(=O)[C@H](CCC(=O)O)NC(=O)[C@H](CCCNC(=N)N)NC(=O)[C@H](C)NC(=O)[C@H](Cc1c[nH]c2ccccc12)NC(=O)[C@H](CCC(N)=O)NC(=O)[C@H](CCC(=O)O)NC(=O)[C@H](CCC(=O)O)NC(C)=O)C(=O)NCC(=O)N[C@@H](C)C(=O)N[C@@H](CCC(N)=O)C(=O)N[C@@H](CC(C)C)C(=O)N[C@@H](CCCNC(=N)N)C(=O)N[C@@H](CCCNC(=N)N)C(=O)N[C@@H](CCSC)C(=O)N[C@@H](C)C(=O)N[C@@H](CC(=O)O)C(=O)N[C@@H](CC(=O)O)C(=O)N[C@@H](CC(C)C)C(=O)N[C@@H](CC(N)=O)C(=O)N[C@@H](C)C(=O)N[C@@H](CCC(N)=O)C(=O)N[C@@H](Cc1ccc(O)cc1)C(=O)N[C@@H](CCC(=O)O)C(=O)N[C@@H](CCCNC(=N)N)C(=O)N[C@@H](CCCNC(=N)N)C(N)=O [α-peptide 1] | 0.005 µM | 0.013 µM | 0.018 µM | 0.01 µM | promiscuous binder capable of engaging all pro-survival proteins with high affinity |  |  |  |  |
| CC[C@H](C)[C@H](NC(=O)C[C@H](CCC(=O)O)NC(=O)[C@H](CCCNC(=N)N)NC(=O)[C@H](C)NC(=O)C[C@H](Cc1c[nH]c2ccccc12)NC(=O)[C@H](CCC(N)=O)NC(=O)[C@H](CCC(=O)O)NC(=O)[C@H](CCC(=O)O)NC(C)=O)C(=O)NCC(=O)N[C@@H](C)C(=O)N[C@@H](CCC(N)=O)CC(=O)N[C@@H](CC(C)C)C(=O)N[C@@H](CCCNC(=N)N)C(=O)N[C@@H](CCCNC(=N)N)CC(=O)N[C@@H](CCSC)C(=O)N[C@@H](C)C(=O)N[C@@H](CC(=O)O)C(=O)N[C@@H](CC(=O)O)CC(=O)N[C@@H](CC(C)C)C(=O)N[C@@H](CC(N)=O)C(=O)N[C@@H](C)CC(=O)N[C@@H](CCC(N)=O)C(=O)N[C@@H](Cc1ccc(O)cc1)C(=O)N[C@@H](CCC(=O)O)C(=O)N[C@@H](CCCNC(=N)N)CC(=O)N[C@@H](CCCNC(=N)N)C(N)=O [α/β-peptide 2] |  |  |  |  |  | strong binding; also recorded: high affinity | does not bind tightly to Mcl-1; also recorded: low affinity; also recorded: relatively weak binding | bound tightly | significant resistance to proteolytic degradation |
| CC[C@H](C)[C@H](NC(=O)C[C@H](CCC(=O)O)NC(=O)[C@H](CCCNC(=N)N)NC(=O)[C@H](C)NC(=O)C[C@H](Cc1c[nH]c2ccccc12)NC(C)=O)C(=O)NCC(=O)N[C@@H](C)C(=O)N[C@@H](CCC(N)=O)CC(=O)N[C@@H](CC(C)C)C(=O)N[C@@H](CCCNC(=N)N)C(=O)N[C@@H](CCCNC(=N)N)CC(=O)N[C@@H](CCSC)C(=O)N[C@@H](C)C(=O)N[C@@H](CC(=O)O)C(=O)N[C@@H](CC(=O)O)CC(=O)N[C@@H](CC(C)C)C(=O)N[C@@H](CC(N)=O)C(=O)N[C@@H](C)CC(=O)N[C@@H](CCC(N)=O)C(=O)N[C@@H](Cc1ccc(O)cc1)C(=O)N[C@@H](CCC(=O)O)C(N)=O [α/β-peptide 3] (Ac-[β3hW]AR[β3hE]IGA[β3hQ]LR[β3hR]MAD[β3hD]LN[β3hA]QYE-NH2; N-terminus assumed) |  |  |  |  |  | high affinity | low affinity |  |  |
